From ChEMBL document CHEMBL5385879, “Various strategies for developing APOBEC3G protectors to circumvent human immunodeficiency virus type 1” (Eur J Med Chem, 2023) come the findings set out here.

pIC50: −log10 of the molar value. Calls of active or inactive are those of the source. The calls are words filed in the database; no cut-off is given here.

Data set [1] concerns Human immunodeficiency virus 1. Description: Antiviral activity against HIV-1 NL4-3 infected in HEK293T cells cotransfected with VSVG and hA3G-HA assessed as reduction in viral replication preincubated for 36 hrs followed by SubT1 cells infection for 48 hrs by luciferase based assay. Particulars: Human immunodeficiency virus 1, NL4-3, HEK-293T. In kind it is functional, organism-based.

Data set [2] relates to Human immunodeficiency virus 1. Description: Antiviral activity against HIV-1 NL4-3 infected in HEK293T cells cotransfected with Vif and hA3G-HA assessed as fold increase in A3G-HA level at 10 uM measured after 36 hrs by Western blotting analysis. The data set is classed as functional. A general note: Immunoblotting shows a protein as a band on a membrane.
The subject of data set [3] is Human immunodeficiency virus 1. In words: Antiviral activity against HIV1 infected in CEM cells assessed as reduction in viral replication measured on day 7 postinfection by ELISA. In kind it is functional, organism-based. Particulars: Human immunodeficiency virus 1, CCRF-CEM, 168 h. (In general: In an ELISA, binding on a coated surface is turned into a signal by an enzyme label.)

Data set [4] can be described thus: Cytotoxicity against human PBMCs. The data set is classed as toxicity, cell-based, PBMC. As to conditions: read-out: TC50 (the source's name).
Data set [5] has as its system Human immunodeficiency virus 1. In words: Antiviral activity against HIV1 Bal infected in PBMCs assessed as reduction in viral replication measured after 7 days post infection. Particulars: Human immunodeficiency virus 1, Bal, PBMC, 168 h. In kind it is functional, organism-based.
Data set [6] deals with Human immunodeficiency virus 1. In words: Antiviral activity against HIV1 infected in HEK293T cells cotransfected with pNL4-3 plus A3G vector assessed as reduction in viral replication measured after 48 hrs post transfection by MAGI assay. The data set is classed as functional, organism-based. Particulars: Human immunodeficiency virus 1, HEK-293T.
Data set [7] is described as follows: Cytotoxicity against HEK293T cells. In kind it is toxicity, cell-based, HEK-293T. As to conditions: human.
The nature of data set [8]: Inhibition of HIV1 Vif to human A3G protein-protein interaction.
In data set [9] the target is Virion infectivity factor (Human immunodeficiency virus type 1 group M subtype B (isolate NY5)(HIV-1), UniProt P12504). In words: Inhibition of HIV1 Vif. Also noted: species or system Human immunodeficiency virus 1.
Chain of Virion infectivity factor (P12504 1-150 limits assumed): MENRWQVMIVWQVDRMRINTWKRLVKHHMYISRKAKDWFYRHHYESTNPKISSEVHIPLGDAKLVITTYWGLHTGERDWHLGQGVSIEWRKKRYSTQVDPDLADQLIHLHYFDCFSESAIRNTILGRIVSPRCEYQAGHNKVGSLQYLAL
Chain of Virion infectivity factor (P12504 151-192 limits assumed): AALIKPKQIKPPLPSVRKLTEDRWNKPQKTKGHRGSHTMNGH
For data set [10], the system named is Hepatitis B virus. Description: Antiviral activity against HBV infected in ETV/3TC-resistant HepG2.A64 cells assessed as reduction in viral replication. In kind it is functional, organism-based.
In data set [11] the test system is Hepatitis B virus. In words: Antiviral activity against wild type HBV infected in HepG2.2.15 cells assessed as reduction in viral replication. The data set is classed as functional, organism-based.
Data set [12] relates to HEK293T. Description: Inhibition of HIV1 Vif expressed in HEK293T cells to cul5 (unknown origin) protein-protein interaction. In kind it is cell-based.
The nature of data set [13]: Inhibition of HIV1 GST-tagged Vif (1 to 94 residues) to biotinylated-A3G (110 to 148 residues) (unknown origin) protein-protein interaction by TR-FRET assay. For orientation: Time-resolved FRET reads energy transfer from a long-lived donor to a nearby acceptor.
For data set [14], the system named is Human immunodeficiency virus 1. Description: Antiviral activity against HIV-1 Bal infected in PBMCs. In kind it is functional, organism-based. As to conditions: Human immunodeficiency virus 1, Bal, PBMC.
Data set [15] deals with Human immunodeficiency virus 1. Description: Antiviral activity against HIV1 infected in C8166 cells assessed as reduction in viral replication measured after 3 days by ELISA. The data set is classed as functional, organism-based. Particulars: Human immunodeficiency virus 1, C8166, 72 h.
Data set [16] concerns Human immunodeficiency virus 2. Description: Antiviral activity against HIV2 infected in C8166 cells assessed as reduction in viral replication measured after 3 days by ELISA. Particulars: Human immunodeficiency virus 2, C8166, 72 h. The data set is classed as functional, organism-based.
Data set [17] has as its system Human immunodeficiency virus 2. In words: Antiviral activity against HIV2 infected in PBMCs assessed as reduction in viral replication measured after 7 days by ELISA. The data set is classed as functional, organism-based. As to conditions: Human immunodeficiency virus 2, PBMC, 168 h.
Data set [18] relates to Human immunodeficiency virus 1. In words: Antiviral activity against HIV1 infected in PBMCs assessed as reduction in viral replication measured after 7 days by ELISA. In kind it is functional, organism-based. As to conditions: Human immunodeficiency virus 1, PBMC, 168 h.
The test system of data set [19] is Human immunodeficiency virus 1. Description: Antiviral activity against HIV1 infected in H9 cells assessed as reduction in viral replication measured after 4 days post infection. The data set is classed as functional, organism-based. As to conditions: Human immunodeficiency virus 1, H9, 96 h.

With `Fc1ccc(OCC(Cn2ccnc2)c2ccc(Cl)cc2Cl)cc1` (stereo not drawn), in data set [1], the pIC50 was 5.06. Besides, the “fold change (FC)” value in [2] was determined as 1.7. On to `CC(C)(C)OC(=O)NCCCC[C@@H](NC(=O)OCc1ccccc1)C(=O)Oc1ccc([N+](=O)[O-])cc1`, for which the pIC50 in data set [3] was 5.09. For `COc1cc(-c2ccc(Nc3ccccc3C(=O)O)c(OC)c2)ccc1Nc1ccccc1C(=O)O`, the CC50 in data set [4] is over 100000 nM. Further, the pIC50 in data set [5] was 5.86. For the molecule `CCOC(=O)c1cc(C(=O)c2ccc3ccccc3c2)n2ccc(C(=O)c3ccccc3)cc12`, the negative logarithm of the IC50 (pIC50) in data set [6] was 4.60. The molecule `Cc1noc(C)c1CSc1nc2ccccc2n1-c1ccccc1` had a pIC50 in [7] of 4.52.

Take `CCCCn1c(SCc2c(C)noc2C)nc2cc(S(N)(=O)=O)ccc21`: the pIC50 in data set [7] is 4.52. In turn, `COc1ccc(C(=O)Nc2cc(OC)c(OC)c(OC)c2)cc1NC(=O)C(C)Br` (stereo not drawn) gave a pIC50 in [8] of 7.77. `COc1ccccc1NC(=O)c1ccccc1Sc1ccc([N+](=O)[O-])cc1` gave a negative-log IC50 (pIC50) in data set [9] of 5.22. Regarding `CNc1cc(C(=O)Nc2ccc(Cl)cc2)ccc1OC`, the pIC50 in data set [10] was 5.48; in data set [11], 5.70. As for `c1ccc(CN(CCN(Cc2ccccn2)Cc2ccccn2)Cc2ccccn2)nc1`, the inhibition result in [12] is “Active”. With `C/C(=C/C(=O)c1cccnc1)Nc1ccc(O)cc1`, the CC50 in [4] was over 100000 nM. Besides, the values for the pIC50 in data set [13], in [14] and in data set [5] were 5.66, 5.38 and 5.08, respectively. In the case of `CCCCCCCCCCCCCCCCCCCCCCC(=O)O[C@@H]1[C@@H](C)[C@@]2(O)[C@@H](C=C(COC(C)=O)C[C@]3(O)C(=O)C(C)=C[C@@H]23)[C@@H]2C(C)(C)[C@]12O`, the pIC50 in data set [15], in data set [16], in data set [17] and in [18] was 7.00 each time. In data set [8], `COc1ccc(C(=O)Oc2cc(OC)c(OC)c(OC)c2)cc1NC(=O)C(C)Br` (stereo not drawn) gave a pIC50 of 7.77.

Turning to `N#C/C(=C\c1ccc(Br)nc1)c1nc2ccccc2[nH]1`, the pIC50 in [19] was 6.00.

As usually defined, the pIC50 is the negative decadic logarithm of the IC50, by convention in mol/L.
